Structures are written as SMILES. Calls of active or inactive are those of the source. No rule for the calls is given here. Numbered stars: 1 amine (or outer) side, 2 acyl side, 3 side chain; on linkers, the order of the positions; unused ones are H or OH. Square brackets hold non-standard residues; d marks the D form. Peptide text beside a SMILES is read from it. ξ: configuration not given here. ξβ3hGly(undecyl) = CCCCCCCCCCCC(CC(=O)[*:2])N[*:1]

Chain of Ubiquitin carboxyl-terminal hydrolase isozyme L1 (Homo sapiens) (P09936 whole entry, looked up): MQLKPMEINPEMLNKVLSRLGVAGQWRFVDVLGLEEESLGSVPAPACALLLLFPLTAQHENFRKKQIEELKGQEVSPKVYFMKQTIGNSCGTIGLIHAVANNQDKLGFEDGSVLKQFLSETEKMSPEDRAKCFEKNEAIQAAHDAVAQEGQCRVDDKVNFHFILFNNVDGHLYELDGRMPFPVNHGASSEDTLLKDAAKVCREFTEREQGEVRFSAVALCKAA

The test has as its target Ubiquitin carboxyl-terminal hydrolase isozyme L1 (Homo sapiens) (UniProt P09936). Put plainly: biochemical concentration-response of UCH-L1 DUB inhibitors, hit verification (AID 1645867). The settings on record: recombinant UCHL1 deubiquitinase activity assay.
Usually IC50 stands for the concentration that gives 50% inhibition. For the compound `O=C(Cn1nnc2ccccc21)Nc1nc(-c2ccc3c(c2)CCN3C(=O)c2ccccc2F)cs1`, the IC50 was > 25 µM (inactive). Take `C=Cc1cc(OC)c2c(c1)c(=O)oc1c2cc(OC)c2c(O)ccc([C@H]3OC(C)[C@@H](OC(C)=O)C(N(C)C)C3O)c21` (stereo partly drawn): the IC50 is > 25 µM (inactive).

Turning to `COc1ccc(CCN2COc3c(cc(Cl)c4cccnc34)C2)cc1OC`, the IC50 is > 25 µM (inactive). As for `CSc1ncccc1C(=O)OCc1ccccc1`, the IC50 was > 25 µM (inactive).

For the compound `O=C(COc1ccc(N2CC(C(=O)NCc3ccc4c(c3)OCO4)CC2=O)cc1)Nc1ccc(Cl)cc1` (stereo not drawn), the IC50 was > 25 µM (inactive).

Take `CCOc1ccc(C2/C(=C(\O)c3ccccc3)C(=O)C(=O)N2c2nc3ccc(F)cc3s2)cc1` (stereo not drawn): the IC50 is > 25 µM (inactive). The figure for `COc1cc(NC(=O)Cn2cc(C(=O)c3ccccc3)c(=O)c3cc(Cl)ccc32)cc(OC)c1` is > 25 µM (inactive); for `O=C(CSc1nnc(C2CC2)n1-c1ccccc1)c1ccc(F)c(F)c1` it is > 25 µM (inactive). The figure for `CSc1cccc(NC(=O)C2C3C=CC4(O3)C2C(=O)N(C2CCCCCC2)C4C(=O)NC2CCCCC2)c1` (stereo not drawn) is > 25 µM (inactive). Turning to `N=C1/C(=C/c2cn(Cc3ccccc3F)c3ccccc23)C(=O)N=C2SC(C(F)(F)F)=NN12`, the IC50 is > 25 µM (inactive). Regarding `COC(=O)c1ccc2c(=O)n(CCCCCC(=O)NCCc3ccc(S(N)(=O)=O)cc3)c(=O)[nH]c2c1`, the IC50 was > 25 µM (inactive). `Cc1ccccc1NC(=O)Cn1c(=O)n(-c2ccc(CC(=O)NCCc3ccccc3)cc2)c(=O)c2sccc21`: the IC50 is > 25 µM (inactive).

Consider `CCCc1ccc(C(=O)[C@@H]2[C@@H](C(=O)c3cccs3)N3c4ccc(C)cc4C(C)=C[C@@H]3[C@@]23C(=O)Nc2ccccc23)cc1`, for which the IC50 is > 25 µM (inactive).

For `COc1ccc(Cl)cc1NC(=O)c1cc(-c2ccccn2)n[nH]1`, the IC50 is > 25 µM (inactive). The figure for `Cc1ccc2[nH]c(=O)c(-c3nc4ccc(C)cn4c3NCc3ccc(F)cc3)cc2c1` is > 25 µM (inactive); for `CC(=O)O[C@@H]1C(=O)C2=C(C(=O)C[C@H]3C(C)(C)C(=O)CC[C@]23C)[C@]2(C)C(=O)C[C@H]([C@H](C)CC(=O)C[C@@H](C)C(=O)O)[C@@]12C` it is > 25 µM (inactive); for `FC(F)(F)c1ccc(Nc2nnnc3ccccc23)cc1` it is > 25 µM (inactive). The figure for `O=C1CC2(C(=O)N(Cc3ccc(Cl)cc3)c3ccccc32)c2cn[nH]c2N1` (stereo not drawn) is > 25 µM (inactive); for `CCn1cc2c(n1)c(=O)n(Cc1ccccc1)c(=O)n2CC(=O)Nc1ccc(C)cc1C` it is > 25 µM (inactive); for `CC(c1ccccc1)N1CC(O)=C(c2nc3ccccc3s2)C1=N` (stereo not drawn) it is > 25 µM (inactive). For `CCC(Sc1cccc(NC(=O)C2CCCCC2)c1)C(=O)Nc1cc([N+](=O)[O-])ccc1C` (stereo not drawn) the value was > 25 µM (inactive). Consider `O=C(Nc1ccc2c(c1)OCO2)c1cncc(NS(=O)(=O)c2ccccc2)c1`, for which the IC50 was > 25 µM (inactive). For `CC1OC2CC(=O)OC2C2=C1C(=O)c1c(O)cccc1C2=O` (stereo not drawn) the value was > 25 µM (inactive). The figure for `COc1ccccc1OCCSc1nnc(-c2ccc3c(c2)OCCCO3)n1C` is > 25 µM (inactive); for `O=C(COC(=O)c1cnccn1)Nc1ccc(Cl)cc1C(=O)c1ccccc1` it is > 25 µM (inactive); for `Cc1oncc1C(=O)N1CC[C@H]2CO[C@H](CN3CCOCC3)[C@H]2C1` it is > 25 µM (inactive). The figure for `Cc1cc(OCC(=O)Nc2ccc3c(c2)NC(=O)CO3)ccc1Cl` is > 25 µM (inactive); for `COc1ccccc1N/C=C/c1onc(-c2c(F)cccc2Cl)c1C#N` it is > 25 µM (inactive). For the compound `CC[C@@H](C(=O)[C@@H](C)[C@@H](O)[C@H](C)CCc1ccc(C)c(O)c1C(=O)O)[C@@H]1O[C@](CC)([C@H]2CC[C@](O)(CC)[C@H](C)O2)C[C@@H]1C`, the IC50 was > 25 µM (inactive). Take `COc1c(O)cc(CC(=O)O)c(C(C)=O)c1O`: the IC50 is 9.26 µM. The figure for `O=c1c2cc(-c3ccccc3)nn2ccn1Cc1noc(CN2CCCCC2)n1` is > 25 µM (inactive); for `Cc1ccc(C2CN3C(=O)CN(C4CC4)C(=O)[C@]3(C)c3[nH]c4ccccc4c32)cc1` (stereo partly drawn) it is > 25 µM (inactive); for `O=C(/C=C/c1ccc(Cl)cc1)N(Cc1ccccc1)C1CCS(=O)(=O)C1` (stereo not drawn) it is > 25 µM (inactive). For `Fc1ccc(NCc2nc3ccccc3n2Cc2ccccc2)cc1`, the IC50 is > 25 µM (inactive). Turning to `COc1ccc(OCC(=O)N(Cc2cccc3ccccc23)c2ccccn2)cc1`, the IC50 is > 25 µM (inactive). As for `O=c1[nH]oc(O)c1-c1ncc(C(F)(F)F)cc1Cl`, the IC50 was > 25 µM (inactive). Regarding `N#Cc1ccc(NC(=O)Nc2cccn(Cc3ccccc3Br)c2=O)cc1`, the IC50 is > 25 µM (inactive).

As to `CCc1ccc(S(=O)(=O)c2cn(CC(=O)Nc3ccccc3)c3ccccc3c2=O)cc1`, the IC50 was > 25 µM (inactive). For `COc1cccc(NC(=O)Cn2c3ccccc3n3c(=O)cc(-c4ccccc4)nc23)c1` the value was > 25 µM (inactive); for `Cc1noc(C)c1CN1CCn2c1nc(-c1ccccc1)cc2=O`, > 25 µM (inactive); for `O=C1c2ccccc2C(=O)c2c(O)c(O)cc(O)c21`, 1.97 µM. The figure for `COc1ccc(OC)c(C2=NO[C@]3(C(=O)Nc4ccccc43)[C@H]2C(=O)c2ccc(OC)c(OC)c2)c1` is > 25 µM (inactive); for `COc1cccc2c1NC(=O)C21CCN(C(=O)Nc2cccc3ccccc23)CC1` it is > 25 µM (inactive). The figure for `O=C(COc1ccc(Cl)cc1)Nc1noc(-c2cccs2)n1` is > 25 µM (inactive); for `CC1(C)Cc2nc(N3CCCC3)c(C#N)cc2CS1` it is > 25 µM (inactive); for `N#Cc1cccc(NC(=O)Nc2cccn(Cc3ccccc3F)c2=O)c1` it is 17.1 µM. As for `COc1ccc(C(=O)COC(=O)c2ccccc2NS(=O)(=O)c2ccc(O)c([N+](=O)[O-])c2)cc1`, the IC50 is > 25 µM (inactive).

Turning to `CCOc1ccc(C(c2c(NC(=O)c3ccccc3)sc(C)c2C)N2CCN(CCO)CC2)cc1` (stereo not drawn), the IC50 is > 25 µM (inactive). As to `Cc1cc(C(=O)NC2(O)C(=O)c3ccccc3C2=O)n(C)n1`, the half-maximal inhibitory concentration (IC50) was 20.6 µM. `COc1ccc(NC(=O)[C@H](C)NC(=O)c2cc3c(OC)cccc3[nH]2)cc1Cl`: the IC50 is > 25 µM (inactive). With `Oc1cccc2c(-c3ccc(O)c4c(O)cccc34)ccc(O)c12`, the IC50 was 10.7 µM. As to `CCC(C(=O)Nc1ncc2c(n1)CC(c1ccccc1)CC2=O)c1ccccc1` (stereo not drawn), the IC50 was > 25 µM (inactive). In the case of `O=C(c1ccc2cc[nH]c2c1)N1CCC(Nc2cccnc2)C1` (stereo not drawn), the IC50 is > 25 µM (inactive). For `Cn1nc(Cl)c(Cl)c1Oc1ccc(S(=O)(=O)Nc2ccc(Oc3ccc(C(F)(F)F)cn3)c(Cl)c2)cc1`, the IC50 was > 25 µM (inactive). Regarding `CCOc1ccc2c(c1)c(=O)c(C(=O)c1ccccc1)cn2CC(=O)Nc1ccccc1`, the IC50 is > 25 µM (inactive). Consider `O=C(COc1ccc(N2CC(C(=O)NCc3ccccc3)CC2=O)cc1)Nc1ccc(F)cc1` (stereo not drawn), for which the IC50 is > 25 µM (inactive). The figure for `COc1ccc(C)cc1NC(=O)COc1ncnc2ccccc12` is > 25 µM (inactive); for `O=C(c1ccc(Cl)cc1)N(c1ccccn1)C1CCCCC1` it is > 25 µM (inactive); for `Cc1nn(-c2ccccc2)c2c1N=C1C(Cl)=CC(Cl)=CN1C21C(=O)Nc2ccccc21` (stereo not drawn) it is 3.72 µM. In the case of `Cc1cccc(NC(=O)Cn2cccc(S(=O)(=O)N3CCC(C)CC3)c2=O)c1C`, the IC50 was > 25 µM (inactive). For `Cc1ccc(Cn2nc(C)c(C(=O)N3CCCc4cc(C)ccc43)c2C)cc1`, the IC50 was > 25 µM (inactive).

`Cc1cccc(NC(=O)N2C[C@@H]3c4nccn4-c4ccccc4[C@@H]3C2)c1`: the IC50 is > 25 µM (inactive). Turning to `C(=C\c1nc(-c2cccc(-c3ccn[nH]3)c2)no1)/c1ccco1`, the IC50 was > 25 µM (inactive). Turning to `CCc1ccccc1NC(=O)Cn1c(SCc2ccc(F)cc2)nc2cccnc21`, the IC50 was > 25 µM (inactive).

Take `O=C(CCCn1c(=O)c2ccccc2n(CC(=O)NCc2ccccc2Cl)c1=O)NCc1ccc2c(c1)OCO2`: the IC50 is > 25 µM (inactive). With `CCOc1ccccc1NC(=O)Cn1c(=O)n(CCCC(=O)NCc2ccc(C)cc2)c(=O)c2sccc21`, the IC50 is > 25 µM (inactive). For `O=c1c(S(=O)(=O)c2cc(F)cc(F)c2)c[nH]c2cc(Cl)ccc12` the value was > 25 µM (inactive); for `O=C(Cn1nc2c3c4c(sc3ncn2c1=O)CCCCC4)Nc1ccc(Cl)cc1F`, > 25 µM (inactive). For `COc1c2nc3ccccc3oc-2cc(=O)c1OC` the value was > 25 µM (inactive). For `O=C(COc1ccc(Cl)cc1Cl)Nc1ccc2[nH]c(=O)[nH]c2c1` the value was > 25 µM (inactive); for `O=C(Nc1ccc(F)cc1)N1C[C@@H]2c3nccn3-c3ccccc3[C@@H]2C1`, > 25 µM (inactive). As to `COCCNC(=O)c1cc(-c2ccn(C3CCCC3)n2)n2ccccc12`, the IC50 is > 25 µM (inactive).

Turning to `Cc1ccc(-n2ccn3c(CCC(=O)NCc4ccc(F)cc4)nnc3c2=O)cc1C`, the IC50 was > 25 µM (inactive).

Consider `Cc1c(Cl)ccc2sc(N3CCN(C(=O)c4ccn(C)n4)CC3)nc12`, for which the IC50 is > 25 µM (inactive). The figure for `O=C(Cn1c(COc2ccccc2)nc2ccccc21)Nc1cc(Cl)cc(Cl)c1` is > 25 µM (inactive); for `CCCCCCCCCCCC1CC(=O)NC(CC(N)=O)C(=O)NC(Cc2ccc(O)cc2)C(=O)NC(CC(N)=O)C(=O)NC(CCC(N)=O)C(=O)N2CCCC2C(=O)NC(CC(N)=O)C(=O)NC(CO)C(=O)N1` (stereo not drawn) (cyclo([ξβ3hGly(undecyl)]NYNQPNS); configuration not given here) it is > 25 µM (inactive); for `O=C(Nc1ccc(-c2cn3ccsc3n2)cc1)c1ccc(Cl)c([N+](=O)[O-])c1` it is > 25 µM (inactive). Regarding `Cc1cc(C)n2nc(Cc3ccccc3)nc2n1`, the IC50 is > 25 µM (inactive).

The record behind these values is PubChem BioAssay AID1645867 (Buhrlage Lab, Dana-Farber Cancer Institute and Novartis …, 2021).
